US8133471B2, “CLK-peptide and SLK-peptide” (New York University, priority 2003, dated 2012)

Tests used:
[1] = tested on: denatured collagen type-IV; experiment: Competition ELISA, mAb HUIV26 binding to denatured collagen type-IV with or without CLK-peptide; details: HUIV26 1 μg/ml; CLK-peptide 100 μg/ml; 2 hours 37° C.
Description: FIG. 14 Inhibition of Binding of Labeled CLK-Peptide to Denatured Collagen Type-IV by mAbs HUI77. To examine the binding specificity of the synthetic CLK-Peptide, the peptide was labeled and solid phase ELISAs were performed. Denatured collagen type-IV (10 μg/ml) was coated on microtiter wells and binding of either HRP-labeled CLK-Peptide or mAbs (mAbs HUI77 or HUIV26) was measured by ELISA at a wavelength of 490 nm. […] B. MAb HUIV26 was allowed to bind the denatured collagen in the presence or absence of CLK-Peptide.
Microtiter wells were coated with denatured collagen type-IV (1 μg/ml) overnight at 4° C., and the plates blocked with 1% BSA for 1 hour at 37° C. HUIV26 was added at 1 μg/ml and allowed to bind the denatured collagen in the presence or absence of 100 μg/ml CLK-peptide for 2 hours at 37° C. Labeled goat-anti-mouse antibody was added at 1:3000 and incubation was allowed for 1 hour at 37° C. Color solution, then a stopping solution of 4N sulfuric acid, were added and binding was quantified by measuring the O.D. at 490 nm. […] Similar results were obtained over a wide range of peptide and antibody concentrations (1 to 100 μg/ml) (data not shown).

[2] = tested on: GL261 glioblastoma tumors; experiment: GL261 tumors grown on chick CAMs, CLK-peptide combined with ionizing radiation; assay type: in vivo; details: CLK-peptide 50 μg/embryo + 5.0 Gy; 7-day incubation
Description: FIG. 25 Effects of CLK-Peptide on Anti-Tumor Activity of Ionizing Radiation In Vivo. Glioblastoma tumors grown on CAMs were treated with either CLK-Peptide, ionizing radiation, both, or left untreated as a control. Their relative sizes after incubation are shown. FIG. 26 Quantitation of the Effects of CLK-Peptide on Anti-tumor Activity of Ionizing Radiation in vivo. Glioblastoma tumors grown on CAMs were treated with either CLK-Peptide, ionizing radiation, both, or left untreated as a control. Their relative wet weights following treatment are graphed. The effects of CLK-peptide in combination with ionizing radiation on tumor growth in vivo were assessed. GL261 glioblastoma cells were seeded on the CAMs of 10-day old chick embryos. Twenty-four hours later, the embryos were injected systemically with CLK-peptide (50 μg/embryo). Twenty-four hours after CLK-peptide treatment the embryos were either untreated or irradiated with a single fraction dose of ionizing radiation (5.0 Gy). Photographs showing the relative sizes of […] given each treatment individually, the combination treatment, and not treated, are shown in FIG. 25. At the end of the 7-day incubation period the tumors (N=6 to 8 per condition) were removed and wet weights determined.

p21CIP1 = p21CIP1 expression by Western blot in M21 cells; assay type: cell-based, human; details: 100 μg/ml
Description: FIG. 12 Inhibition of Cellular Interactions by CLK-Peptide Enhances Expression of P21CIP1 in Human Melanoma (M21) Cells. Non-tissue culture treated 96-well plates were coated with denatured collagen type-IV (10 μg/ml). Human melanoma cells (M21) were allowed to proliferate in the presence or absence of CLK-Peptide or control peptide CTW (100 μg/ml) over a 3-day time course. Cells were then allowed to incubate for 12 hours in 1% serum-containing medium. Expression of P21 CIP1 and actin control were evaluated by Western blotting.
To examine whether the cryptic epitope recognized by CLK-peptide plays a role in cellular proliferation, in vitro proliferations assays were carried out (FIG. 13). In addition, the effects of CLK-peptide on expression of the CDK inhibitor p21^CIP1 were examined by Western blotting methods (FIG. 12). Non-tissue culture treated microtiter wells were coated with denatured collagen type-IV. Human M21 melanoma cells were resuspended in 1% RPMI in the presence or absence of CLK or control CTW-peptide (100 μg/ml). Proliferation was monitored by measuring the relative levels of mitochondrial dehydrogenase using a commercially available (WST-I) proliferation kit (Chemicon).

[3] = tested on: Human endothelial cells (HUVECs); experiment: Endothelial cord formation in MATRIGEL; assay type: cell-based; details: 0 to 100 μg/ml, 24 hours
Description: FIG. 6 Effects of CLK Peptide on HUVEC Cord Formation in MATRIGEL®. MATRIGEL was added to 96-well plates and allowed to form three-dimensional gels. […] Representative photos were taken at a magnification of 100×. A. Untreated control. B. CLK 25 μg/ml. C. CLK 50 μg/ml. D. CLK 100 μg/ml. E. Control Peptide 100 μg/ml.
The role that the CLK cryptic collagen epitope plays in regulating endothelial cell morphogenesis and cord formation, processes important in angiogenesis, were investigated. MATRIGEL was diluted in M199 medium and 300 μl were added to the wells of a 48-well culture plate and allowed to polymerize. […] Endothelial morphogenesis and cord formation was monitored with an inverted microscope fitted with a 35 mm camera to document cord formation.

P27KIP1 = P27KIP1 expression by Western blot in tumor cells on denatured collagen; assay type: cell-based, murine; details: 24 hours
Description: FIG. 11 Inhibition of Cellular Interactions by CLK-Peptide Enhances Expression of P27KIP1. […] A. Treatment of B16F10 melanoma cells. B. Treatment of GL261 glioblastoma cells.
To determine whether the effect on inhibition of tumor proliferation and invasion in vivo differs in malignant tumors and normal tissue, the effect of CLK-peptide on gene expression was analyzed. Genes that regulate cell cycle control, including Cyclin Dependent Kinase (CDK) inhibitors known to regulate cellular proliferation, were studied. Tumor cells (B16F10 melanoma and GL261 glioblastoma) were resuspended in adhesion buffer in the presence or absence of CLK-peptide or control. Cells were added to culture plates coated with denatured collagen and allowed to incubate for 24 hours. Total cell lysates were prepared and the relative levels of the CDK inhibitor P27^KIP1 was examined by Western Blot analysis.

GL261 tumor cells = experiment: GL261 cell migration on denatured collagen type-IV (transwell); assay type: cell-based, murine; details: 50 μg/ml; 6 hours; versus controls
Description: FIG. 22 Effects of CLK-Peptide on Tumor Cell Migration. In cell migration assays, CLK-peptide (50 μg/ml) inhibited GL261 cell migration on denatured collagen type-IV by approximately 50% as compared to control.
The effects of CLK-peptide on invasive tumor cell migration and proliferation in vitro were examined. Membranes from transwell chambers and microtiter wells (in proliferation assays) were coated with denatured collagen type-IV (10 μg/ml). GL261 cells were resuspended in either migration buffer or proliferation buffer in the presence or absence of CLK-peptide or control (50 μg/ml). In the cell migration experiments, GL261 tumor cells were allowed to migrate for 6 hours. Tumor cells that had migrated to the underside of the coated membranes were quantified by staining with crystal violet, and the optical densities of cell-associated dye were measured with a microplate reader at a wavelength of 600 nm.

With “H-CLKQNGGNFSLG-OH [CLK-peptide, NH2-C-L-K-Q-N-G-G-N-F-S-L-G-COOH]” the “blocking of mAb HUIV26 binding to denatured collagen type-IV” value [1] was “did not block”, the “inhibition of tumor growth (wet weights), combination therapy versus either treatment alone” value [2] was “greater” and the “expression of the CDK inhibitor p21CIP1” value (p21CIP1) was “up-regulated”. The “effect on endothelial cord formation” value [3] was “dose-dependently inhibited”, the P27KIP1 level (P27KIP1; B16F10 melanoma cells on denatured collagen) was “dramatic upregulation” and the P27KIP1 level (P27KIP1; GL261 glioblastoma cells on denatured collagen) was “dramatic upregulation”. For the same substance, the “inhibition of GL261 cell migration on denatured collagen type-IV” value (GL261 tumor cells) was “approximately 50%”.
